This passage reports Kd results from patent publication US11319299B2, “Substituted carboxamides as inhibitors of WDR5 protein-protein binding” (PROPELLON THERAPEUTICS INC., priority 2016, dated 2022).

This test concerns the target WDR5 (Homo sapiens (Human), UniProt P61964). Briefly: Surface Plasmon Resonance (SPR) assay, KD and residence time. The following applies: surface plasmon resonance (SPR); read-out: WDR5 binding affinity (KD). It counts as binding. (SPR reads the build-up and loss of mass on a sensor chip optically.)
As to `CNc1nccc(-c2cc(NC(=O)c3c[nH]c(=O)cc3C(F)(F)F)c(N3C[C@@H](C)N(C)[C@@H](C)C3)cc2F)n1` [Example 538, N-[4-fluoro-5-[2-(methylamino)pyrimidin-4-yl]-2-[(3R,5S)-3,4,5-trimethylpiperazin-1-yl]phenyl]-6-oxo-4-(trifluoromethyl)-1H-pyridine-3-carboxamide], the equilibrium dissociation constant (Kd) was 3.02 nM. Turning to `C[C@@H]1CN(c2cc(F)c(-c3ccnc(C#N)n3)cc2NC(=O)c2c[nH]c(=O)cc2C(F)(F)F)C[C@H](C)N1C` [Example 539, N-[5-(2-cyanopyrimidin-4-yl)-4-fluoro-2-[(3R,5S)-3,4,5-trimethylpiperazin-1-yl]phenyl]-6-oxo-4-(trifluoromethyl)-1H-pyridine-3-carboxamide], the dissociation constant (Kd) turned out to be 2.56 nM. The same measure for `CNC1CCN(c2cc(F)c(-c3cnc(N4CCOCC4)nc3)cc2NC(=O)c2c[nH]c(=O)cc2C(F)(F)F)CC1` [Example 541, N-[4-fluoro-2-[4-(methylamino)piperidin-1-yl]-5-(2-morpholin-4-ylpyrimidin-5-yl)phenyl]-6-oxo-4-(trifluoromethyl)-1H-pyridine-3-carboxamide]: 7.44 nM.

As to `C[C@@H]1CN(c2ccc(-c3cc(NC(=O)c4cn(C)c(=O)cc4C(F)F)c(N4C[C@@H](C)N(C)[C@@H](C)C4)cc3F)cn2)CCO1` [Example 542, 4-(difluoromethyl)-N-[4-fluoro-5-[6-[(2R)-2-methylmorpholin-4-yl]pyridin-3-yl]-2-[(3R,5S)-3,4,5-trimethylpiperazin-1-yl]phenyl]-1-methyl-6-oxopyridine-3-carboxamide], the equilibrium dissociation constant (Kd) was found to be 5.53 nM. With `C[C@@H]1CN(c2ncc(-c3cc(NC(=O)c4cn(C)c(=O)cc4C(F)(F)F)c(N4CCN(C)[C@@H](C)C4)cc3F)cn2)CCO1` [Example 544, N-[4-fluoro-2-[(3S)-3,4-dimethylpiperazin-1-yl]-5-[2-[(2R)-2-methylmorpholin-4-yl]pyrimidin-5-yl]phenyl]-1-methyl-6-oxo-4-(trifluoromethyl)pyridine-3-carboxamide], the dissociation constant Kd was determined as 1.8 nM. For `C[C@@H]1CN(c2ncc(-c3cc(NC(=O)c4ccc(F)cc4C(F)(F)F)c(N4C[C@@H](C)N(C)[C@@H](C)C4)cc3F)cn2)CCO1` [Example 545, 4-fluoro-N-[4-fluoro-5-[2-[(2R)-2-methylmorpholin-4-yl]pyrimidin-5-yl]-2-[(3R,5S)-3,4,5-trimethylpiperazin-1-yl]phenyl]-2-(trifluoromethyl)benzamide], the Kd is 3.4 nM. Regarding `C[C@@H]1CN(c2cc(F)c(-c3cnc(N4CCNCC4)nc3)cc2NC(=O)c2ccc(F)cc2C(F)(F)F)C[C@H](C)N1C` [Example 546, 4-fluoro-N-[4-fluoro-5-(2-piperazin-1-ylpyrimidin-5-yl)-2-[(3R,5S)-3,4,5-trimethylpiperazin-1-yl]phenyl]-2-(trifluoromethyl)benzamide], the Kd was determined as 2.1 nM. `C[C@@H]1CN(c2cc(F)c(-c3ccc(N4CCOCC4)nc3)cc2NC(=O)c2ccc(F)cc2C(F)(F)F)C[C@H](C)N1C` [Example 547, 4-fluoro-N-[4-fluoro-5-(6-morpholin-4-ylpyridin-3-yl)-2-[(3R,5S)-3,4,5-trimethylpiperazin-1-yl]phenyl]-2-(trifluoromethyl)benzamide]: the Kd is 1.5 nM.

For the compound `C[C@@H]1CN(c2cc(F)c(-c3ccc(N4CCNCC4)cc3)cc2NC(=O)c2c[nH]c(=O)cc2C(F)(F)F)C[C@H](C)N1C` [Example 549, N-[4-fluoro-5-(4-piperazin-1-ylphenyl)-2-[(3R,5S)-3,4,5-trimethylpiperazin-1-yl]phenyl]-6-oxo-4-(trifluoromethyl)-1H-pyridine-3-carboxamide], the dissociation constant (Kd) stood at 0.8 nM. In the case of `C[C@@H]1CN(c2cc(F)c(-c3ccc(F)c(C(N)=O)c3)cc2NC(=O)c2c[nH]c(=O)cc2C(F)(F)F)C[C@H](C)N1C` [Example 550, N-[5-(3-carbamoyl-4-fluorophenyl)-4-fluoro-2-[(3R,5S)-3,4,5-trimethylpiperazin-1-yl]phenyl]-6-oxo-4-(trifluoromethyl)-1H-pyridine-3-carboxamide], the equilibrium dissociation constant (Kd) worked out at 2.5 nM. The same measure for `C[C@@H]1CN(c2cc(F)c(-c3ccc(C(N)=O)c(F)c3)cc2NC(=O)c2c[nH]c(=O)cc2C(F)(F)F)C[C@H](C)N1C` [Example 551, N-[5-(4-carbamoyl-3-fluorophenyl)-4-fluoro-2-[(3R,5S)-3,4,5-trimethylpiperazin-1-yl]phenyl]-6-oxo-4-(trifluoromethyl)-1H-pyridine-3-carboxamide]: 0.6 nM; for `C[C@@H]1CN(c2cc(F)c(-c3ccc(F)c(C(N)=O)c3)cc2NC(=O)c2c[nH]c(=O)cc2C(F)F)C[C@H](C)N1C` [Example 552, N-[5-(3-carbamoyl-4-fluorophenyl)-4-fluoro-2-[(3R,5S)-3,4,5-trimethylpiperazin-1-yl]phenyl]-4-(difluoromethyl)-6-oxo-1H-pyridine-3-carboxamide]: 3.1 nM.

Turning to `C[C@@H]1CN(c2cc(F)c(-c3ccc(C(N)=O)c(F)c3)cc2NC(=O)c2c[nH]c(=O)cc2C(F)F)C[C@H](C)N1C` [Example 553, N-[5-(4-carbamoyl-3-fluorophenyl)-4-fluoro-2-[(3R,5S)-3,4,5-trimethylpiperazin-1-yl]phenyl]-4-(difluoromethyl)-6-oxo-1H-pyridine-3-carboxamide], the Kd was 1 nM.

With `C[C@@H]1CN(c2cc(F)c(-c3ccc(F)c(C(N)=O)c3)cc2NC(=O)c2ccc(F)cc2C(F)(F)F)C[C@H](C)N1C` [Example 556, 2-fluoro-5-[2-fluoro-5-[[4-fluoro-2-(trifluoromethyl)benzoyl]amino]-4-[(3R,5S)-3,4,5-trimethylpiperazin-1-yl]phenyl]benzamide], the dissociation constant (Kd) came to 10.4 nM. The same measure for `C[C@@H]1CN(c2cc(F)c(-c3cnc(N4CCOC(C)(C)C4)nc3)cc2NC(=O)c2ccc(F)cc2C(F)(F)F)C[C@H](C)N1C` [Example 559, N-[5-[2-(2,2-dimethylmorpholin-4-yl)pyrimidin-5-yl]-4-fluoro-2-[(3R,5S)-3,4,5-trimethylpiperazin-1-yl]phenyl]-4-fluoro-2-(trifluoromethyl)benzamide]: 2.92 nM; for `O=C(Nc1cc(-c2cnc(N3CCOCC3)nc2)c(F)cc1N1CCN(C2CC2)CC1)c1c[nH]c(=O)cc1C(F)(F)F` [Example 561, N-[2-(4-cyclopropylpiperazin-1-yl)-4-fluoro-5-(2-morpholin-4-ylpyrimidin-5-yl)phenyl]-6-oxo-4-(trifluoromethyl)-1H-pyridine-3-carboxamide]: 23.5 nM. `C[C@@H]1CN(c2cc(F)c(-c3c[nH]c(=O)c(F)c3)cc2NC(=O)c2c[nH]c(=O)cc2C(F)(F)F)C[C@H](C)N1C` [Example 562, N-[4-fluoro-5-(5-fluoro-6-oxo-1H-pyridin-3-yl)-2-[(3R,5S)-3,4,5-trimethylpiperazin-1-yl]phenyl]-6-oxo-4-(trifluoromethyl)-1H-pyridine-3-carboxamide]: the Kd amounted to 0.904 nM. Turning to `C[C@@H]1CN(c2cc(F)c(-c3cncc(NC(=O)OCc4ccccc4)c3)cc2NC(=O)c2c[nH]c(=O)cc2C(F)(F)F)C[C@H](C)N1C` [Example 563, benzyl N-[5-[2-fluoro-5-[[6-oxo-4-(trifluoromethyl)-1H-pyridine-3-carbonyl]amino]-4-[(3R,5S)-3,4,5-trimethylpiperazin-1-yl]phenyl]pyridin-3-yl]carbamate], the Kd was found to be 3.32 nM.

Take `C[C@@H]1CN(c2cc(F)c(-c3cc(F)c(=O)n(C)c3)cc2NC(=O)c2c[nH]c(=O)cc2C(F)(F)F)C[C@H](C)N1C` [Example 564, N-[4-fluoro-5-(5-fluoro-1-methyl-6-oxopyridin-3-yl)-2-[(3R,5S)-3,4,5-trimethylpiperazin-1-yl]phenyl]-6-oxo-4-(trifluoromethyl)-1H-pyridine-3-carboxamide]: the Kd was 1.52 nM. The same measure for `COc1ccc(C(=O)N2CC=C(c3cc(NC(=O)c4c[nH]c(=O)cc4C(F)(F)F)c(N4C[C@@H](C)N(C)[C@@H](C)C4)cc3F)CC2)cc1` [Example 565, N-[4-fluoro-5-[1-(4-methoxybenzoyl)-3,6-dihydro-2H-pyridin-4-yl]-2-[(3R,5S)-3,4,5-trimethylpiperazin-1-yl]phenyl]-6-oxo-4-(trifluoromethyl)-1H-pyridine-3-carboxamide]: 0.943 nM; for `C[C@@H]1CN(c2cc(F)c(-c3cnc4c(c3)CC(=O)N4)cc2NC(=O)c2c[nH]c(=O)cc2C(F)(F)F)C[C@H](C)N1C` [Example 566, N-[4-fluoro-5-(2-oxo-1,3-dihydropyrrolo[2,3-b]pyridin-5-yl)-2-[(3R,5S)-3,4,5-trimethylpiperazin-1-yl]phenyl]-6-oxo-4-(trifluoromethyl)-1H-pyridine-3-carboxamide]: 0.896 nM; for `C[C@@H]1CN(c2cc(F)c(-c3ccn(C)c(=O)c3)cc2NC(=O)c2c[nH]c(=O)cc2C(F)(F)F)C[C@H](C)N1C` [Example 567, N-[4-fluoro-5-(1-methyl-2-oxopyridin-4-yl)-2-[(3R,5S)-3,4,5-trimethylpiperazin-1-yl]phenyl]-6-oxo-4-(trifluoromethyl)-1H-pyridine-3-carboxamide]: 1.18 nM.

As to `C[C@@H]1CN(c2cc(F)c(-c3ccc(=O)n(C)c3)cc2NC(=O)c2c[nH]c(=O)cc2C(F)(F)F)C[C@H](C)N1C` [Example 568, N-[4-fluoro-5-(1-methyl-6-oxopyridin-3-yl)-2-[(3R,5S)-3,4,5-trimethylpiperazin-1-yl]phenyl]-6-oxo-4-(trifluoromethyl)-1H-pyridine-3-carboxamide], the equilibrium dissociation constant (Kd) worked out at 4.58 nM. Consider `C[C@@H]1CN(c2cc(F)c(C3=CCN(C(=O)C4CCCCC4)CC3)cc2NC(=O)c2c[nH]c(=O)cc2C(F)(F)F)C[C@H](C)N1C` [Example 569, N-[5-[1-(cyclohexanecarbonyl)-3,6-dihydro-2H-pyridin-4-yl]-4-fluoro-2-[(3R,5S)-3,4,5-trimethylpiperazin-1-yl]phenyl]-6-oxo-4-(trifluoromethyl)-1H-pyridine-3-carboxamide], for which the dissociation constant (Kd) turned out to be 1.99 nM. As to `COCCCN(C)C1CCN(c2cc(F)c(-c3cnc(N4CCOCC4)nc3)cc2NC(=O)c2c[nH]c(=O)cc2C(F)(F)F)C1` (stereo not shown) [Example 572, N-[4-fluoro-2-[3-[3-methoxypropyl(methyl)amino]pyrrolidin-1-yl]-5-(2-morpholin-4-ylpyrimidin-5-yl)phenyl]-6-oxo-4-(trifluoromethyl)-1H-pyridine-3-carboxamide], the dissociation constant Kd came out at 113 nM.

Broadly, the Kd is the free concentration of one partner at which half of the binding sites on the other are occupied at equilibrium, for simple one-to-one binding.
